Measurements taken from article PMC11672637, “7-O-Carboxylic Acid-Substituted 3-O-Alkyl Difluoroquercetin; An Aztreonam-Potentiating Agent Against Carbapenemase-Producing Pseudomonas aeruginosa Through Simultaneous Inhibition of Metallo-β-Lactamase and Efflux Pump” (Antibiotics, 2024).
Values after ≈ are worked out from the molar mass of the structure shown. Read-outs that look alike come from different tables or passages of the source.

What was measured:
PA-002, blaIMP = assay: MIC / checkerboard with ATM; format: cell-based, P. aeruginosa; design: key to Susceptibility category: S: susceptible; I: intermediate; R: resistant; settings: for MIC: Pseudomonas aeruginosa
[1] = system: ATM-Susceptible CPPA (n = 11); assay: MIC distribution over clinical isolates; format: cell-based, P. aeruginosa; settings: Pseudomonas aeruginosa
PA-014, blaGES = assay: MIC / checkerboard with ATM; format: cell-based, P. aeruginosa; design: key to Susceptibility category: S: susceptible; I: intermediate; R: resistant
[2] = system: ATM-Resistant CPPA (n = 15); assay: MIC distribution over clinical isolates; format: cell-based, P. aeruginosa; settings: Pseudomonas aeruginosa
PA-038, blaNDM = assay: MIC / checkerboard with ATM; format: cell-based, P. aeruginosa; design: key to Susceptibility category: S: susceptible; I: intermediate; R: resistant; settings: PA-038
PA-016, blaIMP = assay: MIC / checkerboard with ATM; format: cell-based, P. aeruginosa; design: key to Susceptibility category: S: susceptible; I: intermediate; R: resistant
PA-034, blaNDM = assay: MIC / checkerboard with ATM; format: cell-based, P. aeruginosa; design: key to Susceptibility category: S: susceptible; I: intermediate; R: resistant; settings: PA-034
[3] = system: wild-type P. aeruginosa (ATCC 27853); assay: Time–kill assay; format: cell-based; settings: 24 h
Method: Aliquots (50 μL) were taken from the incubation mixture at regular time intervals (t = 0, 3, 6, and 24 h), serially diluted in 0.85% NaCl solution, and plated on BAP. Bacterial colonies were counted, and the data are presented as the means of at least three independent experiments.

PA-028, blaNDM = assay: MIC / checkerboard with ATM; format: cell-based, P. aeruginosa; design: key to Susceptibility category: S: susceptible; I: intermediate; R: resistant; settings: for MIC: Pseudomonas aeruginosa
PA-037, blaIMP/NDM = assay: MIC / checkerboard with ATM; format: cell-based, P. aeruginosa; design: key to Susceptibility category: S: susceptible; I: intermediate; R: resistant; settings: for MIC: Pseudomonas aeruginosa
PA-009, blaGES = assay: MIC / checkerboard with ATM; format: cell-based, P. aeruginosa; design: key to Susceptibility category: S: susceptible; I: intermediate; R: resistant
[4] = read-out: MIC50 of ATM, 5 at 0 mg/L
[5] = read-out: MIC90 of ATM, 5 at 0 mg/L

MIC (PA-002, blaIMP; PA-002, Table S2, read-out: MIC value): 32 µg/mL
MIC (PA-002, blaIMP; read-out: MIC of ATM, PA-002, ATM alone (5 at 0 mg/L)): 32 µg/mL
MIC50 [1, 4]: 4 µg/mL (≈ 9.19 µM)
MIC90 [1, 5]: 8 µg/mL (≈ 18.4 µM)
MIC (PA-014, blaGES; Pseudomonas aeruginosa, read-out: MIC of ATM, PA-014, ATM alone (5 at 0 mg/L)): 16 µg/mL
MIC50 [2, 4]: 16 µg/mL (≈ 36.7 µM)
MIC90 [2, 5]: 64 µg/mL (≈ 147 µM)
MIC (PA-016, blaIMP; Pseudomonas aeruginosa, read-out: MIC of ATM, PA-016, ATM alone (5 at 0 mg/L)): 32 µg/mL
MIC (PA-028, blaNDM; PA-028, Table S2, read-out: MIC value): 4 µg/mL
MIC (PA-028, blaNDM; read-out: MIC of ATM, PA-028, ATM alone (5 at 0 mg/L)): 8 µg/mL
MIC (PA-037, blaIMP/NDM; PA-037, Table S2, read-out: MIC value): 2 µg/mL
MIC (PA-037, blaIMP/NDM; read-out: MIC of ATM, PA-037, ATM alone (5 at 0 mg/L)): 4 µg/mL
MIC (PA-009, blaGES; Pseudomonas aeruginosa, read-out: MIC of ATM, PA-009, ATM alone (5 at 0 mg/L)): 32 µg/mL
SMILES: C[C@H]1[C@H](NC(=O)/C(=N\OC(C)(C)C(=O)O)c2csc(N)n2)C(=O)N1S(=O)(=O)O [ATM, aztreonam]
Susceptibility to ATM (PA-002, blaIMP; PA-002, ATM alone): R (R (resistant, MIC ≥ 32 mg/L))
Susceptibility category (PA-002, blaIMP; PA-002, Table S2): R
Susceptibility to ATM (PA-014, blaGES; PA-014, ATM alone): I (I (intermediate, MIC = 16 mg/L))
Susceptibility category (PA-014, blaGES; PA-014, Table S2): I
Susceptibility to ATM (PA-038, blaNDM; ATM alone): I (I (intermediate, MIC = 16 mg/L))
Susceptibility category (PA-038, blaNDM; Table S2): I
Susceptibility to ATM (PA-016, blaIMP; PA-016, ATM alone): R (R (resistant, MIC ≥ 32 mg/L))
Susceptibility category (PA-016, blaIMP; PA-016, Table S2): R
Susceptibility to ATM (PA-034, blaNDM; ATM alone): I (I (intermediate, MIC = 16 mg/L))
Susceptibility category (PA-034, blaNDM; Table S2): I
Log CFU/mL, ATM only ([3]; ATM 1/2 MIC): 9.31 Log CFU/mL
Log CFU/mL, ATM only ([3]; ATM 1/4 MIC): 9.57 Log CFU/mL
Log CFU/mL, ATM only ([3]; ATM 1 MIC): 8.02 Log CFU/mL
Log CFU/mL, ATM only ([3]; ATM 2 MIC): 0.17 Log CFU/mL
Susceptibility to ATM (PA-028, blaNDM; PA-028, ATM alone): S (S (sensitive, MIC ≤ 8 mg/L))
Susceptibility category (PA-028, blaNDM; PA-028, Table S2): S
Susceptibility to ATM (PA-037, blaIMP/NDM; PA-037, ATM alone): S (S (sensitive, MIC ≤ 8 mg/L))
Susceptibility category (PA-037, blaIMP/NDM; PA-037, Table S2): S
Susceptibility to ATM (PA-009, blaGES; PA-009, ATM alone): R (R (resistant, MIC ≥ 32 mg/L))
Susceptibility category (PA-009, blaGES; PA-009, Table S2): R
